Assay results reported in patent publication US20140065655A1, “SCREENING METHOD FOR SUBSTANCE ACTING ON MAINTENANCE OF EPITHELIAL PROPERTIES OF CELL” (SCIVAX CORPORATION, priority 2012, published 2014).

Assays:
E-cadherin = assay: qRT-PCR expression level of E-cadherin gene (epithelial marker) in A549 spheroids; type: cell-based, human; conditions: A549, SB431542 10 μM with TGF-β2 5 ng/ml and TNF-α 10 ng/ml, sixth day, corrected by TBP (FIG. 6)
Protocol: (§1) In order to verify whether or not a change in the morphology of the spheroid confirmed in the second example reflects an epithelial-mesenchymal transition and an epithelial-mesenchymal transition inhibition, a result of measuring an expression level of a gene that is known as an epithelial or mesenchymal marker through qRT-PCR is shown in FIGS. 6 to 9. The processes from (1) pre-incubation to (3) addition of the epithelial-mesenchymal transition inducer and inhibitor were carried out likewise the second example. Next, at the sixth day of the culturing, all RNAs were extracted from each sample using RNeasy Plus Mini Kit (made by QIAGEN corporation), and such RNAs having undergone reverse transcription using PrimeScript RT reagent Kit (made by TAKARABIO Inc.) were used for qRT-PCR. SYBER Premix Ex Tagll (made by TAKARABIO Inc.) was used for PCR. Moreover, Thermal Cycler Dice (made by TAKARABIO Inc.) was used for a reaction and a detection. Note that data is corrected by the expression level of internal standard gene (TBP), and is shown as a relative value when the expression level of the control is taken as 1.

[1] = system: human-lung-cancer-cells derived strain A549; assay: Effect of epithelial-mesenchymal transition inhibitor on morphology and hypoxic area (LOX-1 red signal) of spheroids on NanoCulture plate; type: cell-based
Protocol: 5-%-FBS-containing DMEM culture medium and 1.0-%-Matrigel (registered trademark) containing DMEM culture medium were added in respective wells of a cell culture vessels NanoCulture (registered trademark) plate (made by SCIVAX corporation, 384-well plate, material of concavity-convexity structure surface=polymethylpentene (TPX made by MITSUI Chemical Co., Ltd.), planar shape of concavo-convex structure=square, width between unit structures (line width)=700 nm, minimum internal diameter of unit structure=3 μm, and depth=1 μm) by 25 μl, and were subjected to centrifugal force for five minutes at 1000×g.
A cell suspension having human-lung-cancer-cells derived strain A549 adjusted to 13.5×10^4 cells/ml by a 5-%-FBS-containing DMEM culture medium was added to each well of the above-explained plate by 25 μl (the number of cells was 3.4×10^3 cells/well, and the final concentration of the culture medium additive was 5% FBS and 0.5% Matrigel).
At the third day of the culturing, TGF-β2 (made by R&D systems corporation, 302-B2-002) and TNF-α (made by R&D systems corporation, 210-TA-010) which were epithelial-mesenchymal transition inducers were added to each well in such a way that a final concentration became 5 ng/ml and 10 ng/ml, respectively. While at the same time, SB431542 (made by Miltenyi Biotec corporation, 130-095-561) that was an inhibitor of TGF-β2 was added in such a way that a final concentration became 10 μM.
Dimethyl-sulfoxide was added to all wells where no SB431542 was added in such a way that a final concentration became 0.1%.
At the fifth day of the culturing, a hypoxic area detection reagent LOX-1 (made by SCIVAX corporation) was added to each well in such a way that a final concentration became 2 μM. LOX-1 is a reagent that contains iridium complex which emits red phosphorescence.
An observation through a fluorescent microscope was carried out at the sixth day of the culturing.

N-cadherin = assay: qRT-PCR expression level of N-cadherin gene (mesenchymal marker) in A549 spheroids; type: cell-based, human; conditions: A549, SB431542 10 μM with TGF-β2 5 ng/ml and TNF-α 10 ng/ml, sixth day, corrected by TBP (FIG. 7)
Protocol: as §1

[2] = A549, SB431542 10 μM with TGF-β2 5 ng/ml and TNF-α 10 ng/ml, LOX-1 2 μM, sixth day

## NC(=O)c1ccc(-c2nc(-c3ccc4c(c3)OCO4)c(-c3ccccn3)[nH]2)cc1 [SB431542]
E-cadherin
  expression level of E-cadherin: ~60 % of the control
[1]; A549, SB431542 10 μM with TGF-β2 5 ng/ml and TNF-α 10 ng/ml added at third day, observed sixth day, compared with well where no inhibitor was added
  morphology of spheroids (bright field image): the collapse of spheroids were suppressed and the contours of the spheroids had a small concavity and convexity
[1]; [2]
  red intensity and red area (hypoxic area, LOX-1, fluorescent field image): the red intensity was high and the red area was large
  red signal (quantified, FIG. 5) relative to the well where no inhibitor was added: about twice
N-cadherin
  expression level of N-cadherin: decreased to substantially same level as that of the control
